The target in the assay is T1, Amylin 3(a) receptor (human calcitonin receptor (CTa) and RAMP-3) (Homo sapiens, UniProt O60896+P30988).
T1 construct: expressed in transfected cells; host or cells: BHK570 cells, stably transfected with a CRE-luciferase reporter
As to the kind of experiment: Luciferase assay (III), BHK Amylin 3(a)//CRE-luc cells. In kind it is cell-based. The note with it: BHK cells with Amylin 3(a) receptor and CRE luciferase reporter, 4 hours incubation; read-out: Potency Luciferase. In short, it runs like this:
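Read-out is CRE-driven luciferase luminescence, taken 30 min after LucLite addition at room temperature. Compounds were incubated 4 h at 37° C in assay medium (10% FBS, 10 mM Hepes, pH 7,4). The cell line is BHK570 co-transfected with human calcitonin receptor CTa and RAMP-3, seeded overnight before use.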
In general terms: Reporter assays use an easily measured gene product as a stand-in for the process of interest.

Molecules are shown by their SMILES. *1 amine or outer side, *2 acyl side, *3 side chain or, on linkers, in order; H or OH if unused. Where a SMILES comes first, the peptide text is derived from it. Bridges are numbered along the chain shown (N, C = ends). The star is where a group is joined. C20 diacid = O=C(O)CCCCCCCCCCCCCCCCCCC(=O)*; γGlu = O=C(O)[C@H](CCC(=O)[*:2])N[*:1]

This is an account of results in patent US8895504B2, “Amylin derivatives” (priority 2008, dated 2014).

T1 sequence (O60896 24-148): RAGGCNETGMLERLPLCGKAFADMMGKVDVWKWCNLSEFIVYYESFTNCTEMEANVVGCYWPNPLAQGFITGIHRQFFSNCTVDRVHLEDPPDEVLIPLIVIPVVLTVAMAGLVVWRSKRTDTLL
T1 sequence (P30988 25-474): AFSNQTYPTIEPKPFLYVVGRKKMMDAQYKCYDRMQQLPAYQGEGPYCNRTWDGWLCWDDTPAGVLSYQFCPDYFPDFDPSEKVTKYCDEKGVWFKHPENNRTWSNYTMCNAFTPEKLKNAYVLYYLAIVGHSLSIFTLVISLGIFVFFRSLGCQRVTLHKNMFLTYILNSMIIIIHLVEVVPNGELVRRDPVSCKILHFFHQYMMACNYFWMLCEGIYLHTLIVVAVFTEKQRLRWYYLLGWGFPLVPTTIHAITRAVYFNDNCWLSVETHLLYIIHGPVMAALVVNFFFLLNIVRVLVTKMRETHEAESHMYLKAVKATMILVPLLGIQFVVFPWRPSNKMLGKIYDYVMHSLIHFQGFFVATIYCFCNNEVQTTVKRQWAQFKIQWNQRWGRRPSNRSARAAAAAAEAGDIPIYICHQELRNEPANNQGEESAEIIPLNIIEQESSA

On to `CC[C@H](C)[C@H](NC(=O)[C@@H]1CCCN1C(=O)CNC(=O)[C@H](Cc1ccccc1)NC(=O)[C@H](CC(N)=O)NC(=O)[C@H](CC(N)=O)NC(=O)[C@H](CO)NC(=O)[C@H](CO)NC(=O)[C@H](Cc1c[nH]cn1)NC(=O)[C@H](CO)NC(=O)[C@H](CC(C)C)NC(=O)[C@H](Cc1ccccc1)NC(=O)[C@H](CC(N)=O)NC(=O)[C@H](C)NC(=O)[C@H](CC(C)C)NC(=O)[C@H](CCCNC(=N)N)NC(=O)[C@H](CCC(N)=O)NC(=O)[C@@H](NC(=O)[C@H](C)NC(=O)[C@@H]1CSSC[C@H](NC(=O)CC[C@H](NC(=O)CCCCCCCCCCCCCCCCCCC(=O)O)C(=O)O)C(=O)N[C@@H](CC(N)=O)C(=O)N[C@@H]([C@@H](C)O)C(=O)N[C@@H](C)C(=O)N[C@@H]([C@@H](C)O)C(=O)N1)[C@@H](C)O)C(=O)N[C@@H](CC(C)C)C(=O)N1CCC[C@H]1C(=O)N1CCC[C@H]1C(=O)N[C@H](C(=O)N[C@@H](CC(N)=O)C(=O)N[C@H](C(=O)NCC(=O)N[C@@H](CO)C(=O)N[C@@H](CC(N)=O)C(=O)N[C@H](C(=O)N[C@@H](Cc1ccc(O)cc1)C(N)=O)[C@@H](C)O)C(C)C)[C@@H](C)O` [Example 11, N-alpha-[(S)-4-Carboxy-4-(19-carboxynonadecanoylamino)butyryl]-[Ser17]-pramlintide (2-37)] ({C20 diacid-γGlu}-CNTATCATQRLANFLSHSSNNFGPILPPTNVGSNTY-NH2; disulfide 1-6), for which the EC50 came to 0.1 nM.

Take `CC[C@H](C)[C@H](NC(=O)[C@@H]1CCCN1C(=O)CNC(=O)[C@H](Cc1ccccc1)NC(=O)[C@H](CC(N)=O)NC(=O)[C@H](CC(N)=O)NC(=O)[C@H](CO)NC(=O)[C@H](CO)NC(=O)[C@H](Cc1c[nH]cn1)NC(=O)[C@H](Cc1c[nH]cn1)NC(=O)[C@H](CC(C)C)NC(=O)[C@H](Cc1ccccc1)NC(=O)[C@H](CC(N)=O)NC(=O)[C@H](C)NC(=O)[C@H](CC(C)C)NC(=O)[C@H](CCCNC(=N)N)NC(=O)[C@H](CCC(N)=O)NC(=O)[C@@H](NC(=O)[C@H](C)NC(=O)[C@@H]1CSSC[C@H](NC(=O)[C@H](CCCCN)NC(=O)[C@H](CCCNC(=N)N)NC(=O)CC[C@H](NC(=O)CCCCCCCCCCCCCCCCCCC(=O)O)C(=O)O)C(=O)N[C@@H](CC(N)=O)C(=O)N[C@@H]([C@@H](C)O)C(=O)N[C@@H](C)C(=O)N[C@@H]([C@@H](C)O)C(=O)N1)[C@@H](C)O)C(=O)N[C@@H](CC(C)C)C(=O)N1CCC[C@H]1C(=O)N1CCC[C@H]1C(=O)N[C@H](C(=O)N[C@@H](CC(N)=O)C(=O)N[C@H](C(=O)NCC(=O)N[C@@H](CO)C(=O)N[C@@H](CC(N)=O)C(=O)N[C@H](C(=O)N[C@@H](Cc1ccc(O)cc1)C(N)=O)[C@@H](C)O)C(C)C)[C@@H](C)O` [Example 17, N-alpha-[(S)-4-Carboxy-4-(19-carboxynonadecanoylamino)butyryl]-Arg-[His17]-pramlintide] ({C20 diacid-γGlu}-RKCNTATCATQRLANFLHHSSNNFGPILPPTNVGSNTY-NH2; disulfide 3-8): the EC50 stood at 0.08 nM. With `CC[C@H](C)[C@H](NC(=O)[C@@H]1CCCN1C(=O)CNC(=O)[C@H](Cc1ccccc1)NC(=O)[C@H](CC(N)=O)NC(=O)[C@H](CC(N)=O)NC(=O)[C@H](CO)NC(=O)[C@H](CO)NC(=O)[C@H](Cc1c[nH]cn1)NC(=O)[C@H](Cc1c[nH]cn1)NC(=O)[C@H](CC(C)C)NC(=O)[C@H](Cc1ccccc1)NC(=O)[C@H](CC(N)=O)NC(=O)[C@H](C)NC(=O)[C@H](CC(C)C)NC(=O)[C@H](CCCNC(=N)N)NC(=O)[C@H](CCC(N)=O)NC(=O)[C@@H](NC(=O)[C@H](C)NC(=O)[C@@H]1CSSC[C@H](NC(=O)[C@H](CCC(=O)O)NC(=O)[C@H](CCC(=O)O)NC(=O)CC[C@H](NC(=O)CCCCCCCCCCCCCCCCCCC(=O)O)C(=O)O)C(=O)N[C@@H](CC(N)=O)C(=O)N[C@@H]([C@@H](C)O)C(=O)N[C@@H](C)C(=O)N[C@@H]([C@@H](C)O)C(=O)N1)[C@@H](C)O)C(=O)N[C@@H](CC(C)C)C(=O)N1CCC[C@H]1C(=O)N1CCC[C@H]1C(=O)N[C@H](C(=O)N[C@@H](CC(N)=O)C(=O)N[C@H](C(=O)NCC(=O)N[C@@H](CO)C(=O)N[C@@H](CC(N)=O)C(=O)N[C@H](C(=O)N[C@@H](Cc1ccc(O)cc1)C(N)=O)[C@@H](C)O)C(C)C)[C@@H](C)O` [Example 50, N-alpha-[(S)-4-Carboxy-4-(19-carboxynonadecanoylamino)butyryl]-Glu-[Glu1,His17]-pramlintide] ({C20 diacid-γGlu}-EECNTATCATQRLANFLHHSSNNFGPILPPTNVGSNTY-NH2; disulfide 3-8) the figure was 0.3 nM; with `CC(C)C[C@H](NC(=O)[C@H](CCCNC(=N)N)NC(=O)[C@H](CCC(N)=O)NC(=O)[C@@H](NC(=O)[C@H](C)NC(=O)[C@@H]1CSSC[C@H](NC(=O)[C@H](CCC(=O)O)NC(=O)[C@H](CCCNC(=N)N)NC(=O)[C@H](CCC(=O)O)NC(=O)CC[C@H](NC(=O)CCCCCCCCCCCCCCCCCCC(=O)O)C(=O)O)C(=O)N[C@@H](CC(N)=O)C(=O)N[C@@H]([C@@H](C)O)C(=O)N[C@@H](C)C(=O)N[C@@H]([C@@H](C)O)C(=O)N1)[C@@H](C)O)C(=O)N[C@@H](C)C(=O)N[C@@H](CC(=O)O)C(=O)N[C@@H](Cc1ccccc1)C(=O)N[C@@H](CC(C)C)C(=O)N[C@@H](Cc1c[nH]cn1)C(=O)N[C@@H](Cc1c[nH]cn1)C(=O)N[C@@H](CO)C(=O)N[C@@H](CO)C(=O)N[C@@H](CCC(N)=O)C(=O)N[C@@H](CC(N)=O)C(=O)N[C@@H](Cc1ccccc1)C(=O)NCC(=O)N[C@@H](C)C(=O)N1CCC[C@H]1C(=O)N[C@@H](CC(C)C)C(=O)N[C@@H](CO)C(=O)N[C@@H](CO)C(=O)N[C@H](C(=O)N[C@@H](CC(N)=O)C(=O)N[C@H](C(=O)NCC(=O)N[C@@H](CO)C(=O)N[C@@H](CC(N)=O)C(=O)N[C@H](C(=O)N[C@@H](Cc1ccc(O)cc1)C(N)=O)[C@@H](C)O)C(C)C)[C@@H](C)O` [Example 48, N-alpha-[(S)-4-Carboxy-4-(19-carboxynonadecanoylamino)butyryl]-Glu-Arg-[Glu1,Asp14,His17,Gln21,Ala25,Pro26,Ser28,Ser29]-pramlintide] ({C20 diacid-γGlu}-ERECNTATCATQRLADFLHHSSQNFGAPLSSTNVGSNTY-NH2; disulfide 4-9), 0.06 nM.
